Measurements: patent publication US9113629B2, “4-amino-6-(4-substituted-phenyl)-picolinates and 6-amino-2-(4-substituted-phenyl)-pyrimidine-4-carboxylates and their use as herbicides” (DOW AGROSCIENCES LLC, priority 2013, dated 2015)
Where two headings read alike, the source gives them in different places.

Assays:
[1] = system: Key Broadleaf Weed and Crop Species; assay: Post-emergent Test II herbicidal activity (Table 5); assay type: in vivo; settings: post-emergence, 336 h, post-emergent, 14 days after application; for pest or weed control at 70 g/ha: 70 g ai/ha; for pest or weed control at 140 g/ha: 140 g ai/ha
Outline: (§1)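 Compounds, dissolved in 97:3 acetone/DMSO and diluted into an aqueous carrier containing crop oil concentrate and Triton X-155, are applied over the top of young plants at 187 L/ha. Injury is scored visually at 14 d, 0% meaning no effect and 100% complete kill.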

[2] = system: Key Grass and Sedge Weeds as well as Grass Crops; assay: Post-emergent Test II herbicidal activity (Table 6); assay type: in vivo; settings: post-emergence, 336 h; for pest or weed control at 70 g/ha: application rate 70 g ai/ha; for pest or weed control at 140 g/ha: application rate 140 g ai/ha
Outline: as §1

[3] = ABUTH: velvetleaf (Abutilon theophrasti), read-out: Visual Growth Reduction (%) 14 Days After Application ABUTH
[4] = AMARE: redroot pigweed (Amaranthus retroflexus), read-out: Visual Growth Reduction (%) 14 Days After Application AMARE
[5] = BRSNN: oilseed-rape, canola (Brassica napus), read-out: Visual Growth Reduction (%) 14 Days After Application BRSNN
[6] = CHEAL: lambsquarters (Chenopodium album), read-out: Visual Growth Reduction (%) 14 Days After Application CHEAL
[7] = EPHHL: wild poinsettia (Euphorbia heterophylla), read-out: Visual Growth Reduction (%) 14 Days After Application EPHHL
[8] = HELAN: sunflower (Helianthus annuus), read-out: Visual Growth Reduction (%) 14 Days After Application HELAN
[9] = VIOTR: wild pansy (Viola tricolor), read-out: Visual Growth Reduction (%) 14 Days After Application VIOTR
[10] = Triticum aestivum, TRZSS (wheat), read-out: Visual Growth Reduction (%) 14 Days After Application, TRZSS
[11] = CYPES: yellow nutsedge (Cyperus esculentus), read-out: Visual Growth Reduction (%) 14 Days After Application, CYPES
[12] = DIGSA: crabgrass (Digitaria sanguinalis), read-out: Visual Growth Reduction (%) 14 Days After Application, DIGSA
[13] = ECHCG: barnyardgrass (Echinochloa crus-galli), read-out: Visual Growth Reduction (%) 14 Days After Application, ECHCG
[14] = ORYSA: rice (Oryza sativa), read-out: Visual Growth Reduction (%) 14 Days After Application, ORYSA
[15] = SETFA: giant foxtail (Setaria faberi), read-out: Visual Growth Reduction (%) 14 Days After Application, SETFA
[16] = SORVU: grain sorghum (Sorghum vulgare), read-out: Visual Growth Reduction (%) 14 Days After Application, SORVU
[17] = ZEAMX: maize, corn (Zea mays), read-out: Visual Growth Reduction (%) 14 Days After Application, ZEAMX

COC(=O)c1nc(-c2cc(F)c(F)cc2F)c(F)c(N)c1Cl [Compound 200, Methyl 4-amino-3-chloro-5-fluoro-6-(2,4,5-trifluorophenyl)picolinate]
45 to 59%: pest or weed control at 140 g/ha [2, 11] | pest or weed control at 70 g/ha [2, 15] | pest or weed control at 70 g/ha [2, 17]
95 to 100%: pest or weed control at 70 g/ha [1, 3] | pest or weed control at 140 g/ha [1, 3] | pest or weed control at 70 g/ha [1, 4] | pest or weed control at 140 g/ha [1, 4] | pest or weed control at 70 g/ha [1, 5] | pest or weed control at 140 g/ha [1, 5] | pest or weed control at 70 g/ha [1, 6] | pest or weed control at 140 g/ha [1, 6] | pest or weed control at 70 g/ha [1, 7] | pest or weed control at 140 g/ha [1, 7] | pest or weed control at 140 g/ha [1, 8] | pest or weed control at 140 g/ha [1, 9]
85 to 94%: pest or weed control at 70 g/ha [1, 8]
0 to 29%: pest or weed control at 70 g/ha [2, 11] | pest or weed control at 70 g/ha [2, 14] | pest or weed control at 140 g/ha [2, 14] | pest or weed control at 70 g/ha [2, 16] | pest or weed control at 140 g/ha [2, 16]
30 to 44%: pest or weed control at 70 g/ha [2, 10] | pest or weed control at 140 g/ha [2, 10]
60 to 74%: pest or weed control at 140 g/ha [2, 17]
75 to 84%: pest or weed control at 70 g/ha [1, 9] | pest or weed control at 70 g/ha [2, 12] | pest or weed control at 140 g/ha [2, 12] | pest or weed control at 70 g/ha [2, 13] | pest or weed control at 140 g/ha [2, 13] | pest or weed control at 140 g/ha [2, 15]
